Values after ≈ are worked out from the molar mass of the structure shown.
How the values were obtained:
[1] = tested on: human breast cancer cell line MCF7; test: Cytostatic activity in vitro, breast cancer MCF7; assay type: cell-based; conditions: 72 h continuous exposure
From the text: (§1) It should be mentioned that resistance index is above one order of magnitude better in comparison with doxorubicin and mitoxantrone.

[2] = tested on: MCF7/DX; test: Cytostatic activity in vitro, resistant breast cancer subline MCF7/DX (MDR-1); assay type: cell-based, human
From the text: as §1

[3] = tested on: lymphoblastic leukemia CCRF-CEM; test: Cytostatic activity, panel: lymphoblastic leukemia CCRF-CEM; assay type: cell-based; conditions: 72 h continuous exposure
From the text: (§2) Tables 8A and 8B present cytostatic activity in vitro of selected anthrapyridazone derivatives according to the invention against panel of sensitive and resistant cell lines, in comparison with doxorubicin, cisplatine and mitoxantrone.

[4] = tested on: human colon adenocarcinoma HT29; test: Cytostatic activity in vitro, colon adenocarcinoma HT29; assay type: cell-based; conditions: 72 h continuous exposure
From the text: (§3) Table 7 presents activity in vitro of selected anthrapyridazone derivatives according to the invention towards sensitive and resistant (MDR-1 type) cell line of human colon adenocarcinoma with resistance induced by mitoxantrone.

[5] = tested on: human promyelocytic leukemia cell line HL-60; test: Cytostatic activity in vitro, HL-60 sensitive line; assay type: cell-based; conditions: 50% inhibition of cell growth after 72 h continuous exposure; read-out: HL60 IC50
[6] = tested on: HL60/VINC; test: Cytostatic activity in vitro, vincristine-induced resistant subline (MDR-1); assay type: cell-based, human
[7] = tested on: CT-DNA; test: Interaction with isolated CT-DNA, fluorescence competition with ethidium bromide; assay type: binding
From the text: It could be supposed that this property explains cytostatic activity of compounds. In Table 9 there are presented quantitative data on the affinity to DNA of tested compounds using the fluorescence method and competitive affinity to DNA of bromine ethydine and tested compounds.

[8] = tested on: human prostate cancer cell line PC3; test: Cytostatic activity in vitro, prostate cancer PC3; assay type: cell-based; conditions: 72 h continuous exposure
From the text: (§4) Table 5 presents activity in vitro of anthrapiridazone derivatives towards three cell lines of prostate cancer, naturally multidrug resistant, in comparison with references doxorubicin, mitoxantrone and taxol.

[9] = tested on: HL60/DX; test: Substrate properties: activity against HL60/DX in the presence of BSO (MRP pump inhibitor); assay type: cell-based, human; conditions: FIG. 3
From the text: Activity in vitro against human promyelolytic leukemia HL60/DX in the presence of D-L-buthionine-(S,R)-sulphoximine (BSO), MRP pump inhibitor.

[10] = tested on: HL60/MX2; test: Cytostatic activity, panel: HL60/MX2 resistant to mitoxantrone; assay type: cell-based
From the text: as §2

[11] = tested on: HL60/VINC; test: Substrate properties: activity against HL60/VINC in the presence of cyclosporine A (MDR-1 pump inhibitor); assay type: cell-based, human; conditions: FIG. 2
From the text: FIG. 2 shoes experimentally determined substrate properties of selected antgraoyridazone derivatives vs. Doxorubicin and Mitroxantrone. Activity in vitro against human promyelacytic leykemia cell line HL60/VINC in the presence of cyclosporine A (MDR-1 pump inhibitor).

[12] = tested on: LoVo/DX; test: Cytostatic activity, panel: LoVo/DX resistant to doxorubicin; assay type: cell-based
From the text: as §2

[13] = tested on: HL60/DX; test: Cytostatic activity in vitro, doxorubicin-induced resistant subline (MRP); assay type: cell-based, human
[14] = tested on: human prostate cancer cell line LNCaP; test: Cytostatic activity in vitro, prostate cancer LNCaP; assay type: cell-based; conditions: 72 h continuous exposure
From the text: as §4

[15] = tested on: HT29/MIT; test: Cytostatic activity in vitro, mitoxantrone-induced resistant subline HT29/MIT; assay type: cell-based, human
From the text: as §3

[16] = tested on: CEM/C2; test: Cytostatic activity, panel: CEM/C2 resistant to camptotecine; assay type: cell-based
From the text: as §2

[17] = tested on: promyelolytic leukemia HL-60; test: Cytostatic activity, panel: promyelolytic leukemia HL-60; assay type: cell-based; conditions: 72 h continuous exposure
From the text: as §2

[18] = tested on: colon cancer LoVo; test: Cytostatic activity, panel: colon cancer LoVo; assay type: cell-based; conditions: 72 h continuous exposure
From the text: as §2

[19] = tested on: uterus cancer MES-SA; test: Cytostatic activity, panel: uterus cancer MES-SA; assay type: cell-based; conditions: 72 h continuous exposure
From the text: as §2

[20] = tested on: human prostate cancer cell line DU145; test: Cytostatic activity in vitro, prostate cancer DU145; assay type: cell-based; conditions: 72 h continuous exposure
From the text: as §4

[21] = tested on: MES-SA/DX5; test: Cytostatic activity, panel: MES-SA/DX5 resistant to doxorubicin; assay type: cell-based
From the text: as §2

[22] = IC50(resistant cells)/IC50(sensitive cells)

IC50 [1]: 8.8 ± 0.6 nM | IC50 ([2]; 72 h continuous exposure): 8.7 ± 1.2 nM | IC50 CCRF-CEM [3]: 3.73 ± 1.93 ng/mL (≈ 0.00953 µM) | IC50 [4]: 5.2 ± 1.3 nM | IC50 [5]: 0.9 ± 0.1 nM | IC50 ([6]; 72 h continuous exposure): 8.1 ± 1 nM | IC50 ([7]; 50% decrease in fluorescence intensity of DNA-bromide ethydine complex): 290 ± 10 nM | IC50 [8]: 14 ± 3.3 nM | IC50 LoVo/DX ([12]; 72 h continuous exposure): 68.42 ± 12.73 ng/mL (≈ 0.175 µM) | IC50 ([13]; 72 h continuous exposure): 375 ± 41 nM | IC50 [14]: 2.6 ± 0.3 nM | IC50 CEM/C2 ([16]; 72 h continuous exposure): 1.24 ± 1.37 ng/mL (≈ 0.00317 µM) | IC50 HL60 [17]: 1.11 ± 0.02 ng/mL (≈ 0.00284 µM) | IC50 LoVo [18]: 1.53 ± 1.02 ng/mL (≈ 0.00391 µM) | IC50 MES-SA [19]: 13.33 ± 2.38 ng/mL (≈ 0.0341 µM) | IC50 [20]: 3 ± 0.7 nM | IC50 MES-SA/DX5 ([21]; 72 h continuous exposure): 38.33 ± 11.36 ng/mL (≈ 0.0979 µM)
Structure (SMILES): CNCCNc1ccc2c(=O)n(CCN(C)C)nc3c2c1C(=O)c1ccccc1-3 [BS-154, 2-[2-(Dimethyloamino)ethyl]-6-{[2-(methylamino)ethyl]amino}-2,7-dihydro-3H -dibenzo[de,h]cynnoline-3,7-dione]
RI resistance index MCF7/DX ([2]; IC50(resistant cells)/IC50(sensitive cells), MCF7/DX vs MCF7): 1.0 | RI resistance index HL60/VINC ([6]; IC50(resistant cells)/IC50(sensitive cells), HL60/VINC vs HL60, 72 h): 9.0 | Kapp relative constant of DNA-compound bonding ([7]; Kapp = (1.26/C50) × KEtBr, KEtBr = 10^7M): 4.28e+07 M⁻¹ | Effect of MRP protein inhibitor (BSO) on cytostatic activity [9]: only partially | IC50 HL60/MX2 ([10]; 72 h continuous exposure): 5.45 ± 3.04 ng/mL (≈ 0.0139 µM) | RI HL60 HL60/MX2 [10, 22]: 4.9 | Effect of blocking MDR-1 pump with cyclosporine A (CSA) on cytostatic activity [11]: does not essentially affect the cytostatic activity | RI LoVo LoVo/DX [12, 22]: 44.7 | RI resistance index HL60/DX ([13]; IC50(resistant cells)/IC50(sensitive cells), HL60/DX vs HL60, 72 h): 416.7 | IC50 ([15]; 72 h continuous exposure): 11.2 ± 2.2 nM | RI resistance index HT29/MIT ([15]; IC50(resistant cells)/IC50(sensitive cells), HT29/MIT vs HT29): 2.1 | RI CCRF-CEM CEM/C2 [16, 22]: 0.3 | RI MES-SA MES-SA/DX5 [21, 22]: 2.9
